# According to US8178506B2, “Oligomeric compounds and compositions for use in modulation of small non-coding RNAs” (Regulus Therapeutics Inc., priority 2003, dated 2012):
# In the oligonucleotide strings, read from the 5' end, every base follows the letter of its sugar. An asterisk marks phosphorothioate; unmarked linkages are phosphodiester. Other units and linkages are bracketed, terminal groups are in braces. A string of capitals states the bases alone. e = 2'-O-(2-methoxyethyl) (MOE); [5mC] = 5-methylcytosine
# Experiments:
# aP2 = aP2 mRNA expression in adipocytes (real-time PCR); type: cell-based, human; conditions: for AP2 (mRNA expression): adipocytes, 250 nM oligomeric compound, day nine post-transfection, relative to control (1.0); for aP2 mRNA: Table 75
# HuVECs = assay: Endothelial tube formation assay in HuVECs; conditions: 75 nM oligomeric compound, Table 56
# adipocytes = assay: Triglyceride accumulation assay in adipocytes; type: cell-based, human; conditions: for Triglycerides: differentiating adipocytes day 10 post-induction, 24 hours after treatment
# PPARγ = PPARγ mRNA expression in adipocytes (real-time PCR); type: cell-based, human; conditions: for PPAR gamma (mRNA expression): adipocytes, 250 nM oligomeric compound, day nine post-transfection, relative to control (1.0); for PPAR-gamma mRNA: differentiating adipocytes day 10 post-induction, 24 hours after treatment
# HSL = HSL mRNA expression in adipocytes (real-time PCR); type: cell-based, human; conditions: for HSL (mRNA expression): adipocytes, 250 nM oligomeric compound, day nine post-transfection, relative to control (1.0)
# Glut4 = Glut4 mRNA expression in adipocytes (real-time PCR); type: cell-based, human; conditions: for Glut4 (mRNA expression): adipocytes, 250 nM oligomeric compound, day nine post-transfection, relative to control (1.0)
# [1] = differentiating adipocytes transfected with oligomeric compound
# [2] = adipocytes, 250 nM oligomeric compound, relative to control (1.0), Table 15
# [3] = adipocytes, 250 nM oligomeric compound, relative to control (1.0), Table 16
# [4] = differentiating adipocytes transfected with oligomeric compound, Table 75
# [5] = 50 nM, differentiating adipocytes day 10 post-induction, 24 hours after treatment
# [6] = 100 nM, differentiating adipocytes day 10 post-induction, 24 hours after treatment
# [7] = 200 nM, differentiating adipocytes day 10 post-induction, 24 hours after treatment
# [8] = 300 nM, differentiating adipocytes day 10 post-induction, 24 hours after treatment
# [9] = Table 17, differentiating adipocytes, control = treatment with ISIS 342673
# [10] = Table 18, differentiating adipocytes, control = treatment with ISIS 342673
substance,measurement,setting,value
327888 (antisense eA*eA*eT*eG*e[5mC]*e[5mC]*e[5mC]*e[5mC]*eT*eA*eA*eA*eA*eA*eT*e[5mC]*e[5mC]*eT*eT*eA*eT) [compound 327888],AP2 (mRNA expression),aP2; Table 15,1.18
same,AP2 (mRNA expression),aP2; Table 16,0.47
same,AP2 mRNA,aP2; [1],102 percentage of untreated control (UTC)
same,% Activity Relative to UTC (tube formation),HuVECs,100.0%
same,TG (triglyceride accumulation),adipocytes; [2],0.98
same,TG (triglyceride accumulation),adipocytes; [3],0.44
same,TG (triglyceride accumulation),adipocytes; [1],132 percentage of untreated control (UTC)
same,PPAR gamma (mRNA expression),PPARγ; Table 15,1.36
same,PPAR gamma (mRNA expression),PPARγ; Table 16,0.66
same,PPAR gamma mRNA,PPARγ; [1],103 percentage of untreated control (UTC)
same,HSL (mRNA expression),HSL; Table 15,1.38
same,HSL (mRNA expression),HSL; Table 16,0.50
same,HSL mRNA,HSL; [1],134 percentage of untreated control (UTC)
same,Glut4 (mRNA expression),Glut4; Table 15,1.37
same,Glut4 (mRNA expression),Glut4; Table 16,0.17
same,GLUT4 mRNA,Glut4; [1],84 percentage of untreated control (UTC)
327889 (antisense eG*eT*eG*eG*eT*eA*eA*eT*e[5mC]*e[5mC]*e[5mC]*eT*eG*eG*e[5mC]*eA*eA*eT*eG*eT*eG*eA*eT) [compound 327889],AP2 (mRNA expression),aP2; Table 15,0.69
same,AP2 (mRNA expression),aP2; Table 16,0.57
same,% Activity Relative to UTC (tube formation),HuVECs,50.0%
same,TG (triglyceride accumulation),adipocytes; [2],0.47
same,TG (triglyceride accumulation),adipocytes; [3],0.46
same,PPAR gamma (mRNA expression),PPARγ; Table 15,0.71
same,PPAR gamma (mRNA expression),PPARγ; Table 16,0.82
same,HSL (mRNA expression),HSL; Table 15,0.59
same,HSL (mRNA expression),HSL; Table 16,0.54
same,Glut4 (mRNA expression),Glut4; Table 15,0.55
same,Glut4 (mRNA expression),Glut4; Table 16,0.46
327890 (antisense eA*eG*e[5mC]*eA*e[5mC]*eA*eA*eA*e[5mC]*eT*eA*e[5mC]*eT*eA*e[5mC]*e[5mC]*eT*e[5mC]*eA) [compound 327890],AP2 (mRNA expression),aP2; Table 15,0.91
same,AP2 (mRNA expression),aP2; Table 16,0.69
same,% Activity Relative to UTC (tube formation),HuVECs,92.9%
same,TG (triglyceride accumulation),adipocytes; [2],0.92
same,TG (triglyceride accumulation),adipocytes; [3],0.61
same,PPAR gamma (mRNA expression),PPARγ; Table 15,1.18
same,PPAR gamma (mRNA expression),PPARγ; Table 16,0.94
same,HSL (mRNA expression),HSL; Table 15,0.86
same,HSL (mRNA expression),HSL; Table 16,0.67
same,Glut4 (mRNA expression),Glut4; Table 15,1.10
same,Glut4 (mRNA expression),Glut4; Table 16,0.67
327892 (antisense eA*e[5mC]*eT*eT*eT*e[5mC]*eG*eG*eT*eT*eA*eT*e[5mC]*eT*eA*eG*e[5mC]*eT*eT*eT*eA) [compound 327892],AP2 (mRNA expression),aP2; Table 15,0.31
same,% Activity Relative to UTC (tube formation),HuVECs,57.1%
same,TG (triglyceride accumulation),adipocytes; [2],0.42
same,PPAR gamma (mRNA expression),PPARγ; Table 15,0.32
same,HSL (mRNA expression),HSL; Table 15,0.25
same,Glut4 (mRNA expression),Glut4; Table 15,0.07
327893 (antisense eA*eA*e[5mC]*e[5mC]*eA*e[5mC]*eA*e[5mC]*eA*eA*e[5mC]*e[5mC]*eT*eA*e[5mC]*eT*eA*e[5mC]*e[5mC]*eT*e[5mC]*eA) [compound 327893],AP2 (mRNA expression),aP2; Table 16,0.97
same,% Activity Relative to UTC (tube formation),HuVECs,100.0%
same,TG (triglyceride accumulation),adipocytes; [3],0.95
same,PPAR gamma (mRNA expression),PPARγ; Table 16,1.03
same,HSL (mRNA expression),HSL; Table 16,0.85
same,Glut4 (mRNA expression),Glut4; Table 16,1.47
327895 (antisense eA*e[5mC]*eA*eA*eA*e[5mC]*eA*e[5mC]*e[5mC]*eA*eT*eT*eG*eT*e[5mC]*eA*e[5mC]*eA*e[5mC]*eT*e[5mC]*e[5mC]*eA) [compound 327895],aP2 mRNA,aP2; [1],90 percentage of untreated control (UTC)
same,% Activity Relative to UTC (tube formation),HuVECs,100.0%
same,TG (triglyceride accumulation),adipocytes; [4],76 percentage of untreated control (UTC)
same,PPAR gamma mRNA,PPARγ; [4],86 percentage of untreated control (UTC)
same,HSL mRNA,HSL; [4],88 percentage of untreated control (UTC)
same,GLUT4 mRNA,Glut4; [4],76 percentage of untreated control (UTC)
327896 (antisense eA*e[5mC]*eA*eG*eT*eT*e[5mC]*eT*eT*e[5mC]*eA*eA*e[5mC]*eT*eG*eG*e[5mC]*eA*eG*e[5mC]*eT*eT) [compound 327896],aP2 mRNA,aP2; [1],43 percentage of untreated control (UTC)
same,% Activity Relative to UTC (tube formation),HuVECs,64.3%
same,TG (triglyceride accumulation),adipocytes; [4],22 percentage of untreated control (UTC)
same,PPAR gamma mRNA,PPARγ; [4],52 percentage of untreated control (UTC)
same,HSL mRNA,HSL; [4],37 percentage of untreated control (UTC)
same,GLUT4 mRNA,Glut4; [4],35 percentage of untreated control (UTC)
342673 (antisense eA*eG*eA*e[5mC]*eT*eA*eG*e[5mC]*eG*eG*eT*eA*eT*e[5mC]*eT*eT*eT*eA*eT*e[5mC]*e[5mC]*e[5mC]) [compound 342673],AP2 mRNA,aP2; [5],82.4 % UTC
same,AP2 mRNA,aP2; [6],90.3 % UTC
same,AP2 mRNA,aP2; [7],81.1 % UTC
same,AP2 mRNA,aP2; [8],70.9 % UTC
same,AP2 mRNA,aP2; [9],100.0 percentage of control
same,AP2 mRNA,aP2; [10],100 percentage of control
same,Triglycerides,adipocytes; 50 nM,94.2 % UTC
same,Triglycerides,adipocytes; 100 nM,105.3 % UTC
same,Triglycerides,adipocytes; 200 nM,98.3 % UTC
same,Triglycerides,adipocytes; 300 nM,108.2 % UTC
same,TG (triglyceride accumulation),adipocytes; [9],100.0 percentage of control
same,TG (triglyceride accumulation),adipocytes; [10],100 percentage of control
same,PPAR-gamma mRNA,PPARγ; 50 nM,77.5 % UTC
same,PPAR-gamma mRNA,PPARγ; 100 nM,89.9 % UTC
same,PPAR-gamma mRNA,PPARγ; 200 nM,94.6 % UTC
same,PPAR-gamma mRNA,PPARγ; 300 nM,85.8 % UTC
same,PPAR gamma mRNA,PPARγ; [9],100.0 percentage of control
same,PPAR gamma mRNA,PPARγ; [10],100 percentage of control
same,HSL mRNA,HSL; [5],92.0 % UTC
same,HSL mRNA,HSL; [6],95.6 % UTC
same,HSL mRNA,HSL; [7],97.3 % UTC
same,HSL mRNA,HSL; [8],85.2 % UTC
same,HSL mRNA,HSL; [9],100.0 percentage of control
same,HSL mRNA,HSL; [10],100 percentage of control
same,GLUT4 mRNA,Glut4; [5],94.9 % UTC
same,GLUT4 mRNA,Glut4; [6],90.7 % UTC
same,GLUT4 mRNA,Glut4; [7],97.6 % UTC
same,GLUT4 mRNA,Glut4; [8],102.7 % UTC
same,GLUT4 mRNA,Glut4; [9],100.0 percentage of control
same,GLUT4 mRNA,Glut4; [10],100 percentage of control
